Measurements reported in US10111437B2, “Substituted guanidines as fungicides” (Nippon Soda Co., Ltd., priority 2015, dated 2018).

Key:
[1] = system: wheat leaf rust fungus (Puccinia recondita); assay: Wheat leaf rust control test (foliar spray on wheat seedlings); format: in vivo; details: 240 h, 125 ppm active ingredient, sprayed on wheat seedlings (variety Norin 61) before inoculation, 10 days, vs untreated
[2] = system: Tomato late blight fungus (Phytophthora infestans); assay: whole plant or invertebrate; format: in vivo; details: foliar, 96 h, read-out: control value
[3] = system: Apple scab fungus (Venturia inaequalis); assay: Apple scab control test (foliar spray on apple seedlings); format: in vivo; details: 125 ppm active ingredient, sprayed on apple seedlings (variety Orin) before inoculation, vs untreated
Method: The dilution was sprayed to apple seedlings (variety “Orin”, 3 to 4 leaf stage) grown in clay pots. […] The control value was calculated by the following equation. [formula]

[4] = system: cucumber gray mold fungus (Botrytis cinerea); assay: Cucumber gray mold control test (foliar spray on cucumber seedlings); details: in Cucumis sativus, 96 h, read-out: control value

Measured: pest or weed control at 125 ppm

CC1(C)CNC(c2ccc(OCCCCNC(=N)NCCCCCCCCNC(=N)N)cc2)=N1 [compound 256]
≥ 75%: all assays above

N=C(NCCCOc1ccc(C(=N)N)cc1)NCCCOc1ccc(C(=N)N)cc1 [compound 42, 4-[3-[[N-[3-(4-carbamimidoylphenoxy)propyl]carbamimidoyl]amino]propoxy]benzamidine]
≥ 75%: all assays above

N=C(N)NCCCCCCCNC(=N)NCCOCc1ccc(C(=N)N)cc1 [compound 228]
≥ 75%: all assays above

N=C(N)NCCCCCCCCNC(=N)NCCCc1ccc(C(=N)N)cc1 [compound 169]
≥ 75%: all assays above

CN(CCCOc1ccc(C(=N)N)cc1)C(=N)NCCCCCCCCNC(=N)N [compound 128]
≥ 75%: all assays above

N=C(N)NCCCCCCCCNC(=N)NCCCOCc1ccc(C(=N)N)cc1 [compound 145]
≥ 75%: all assays above

N=C(N)NCCCCCCCCNC(=N)NCCCOc1ccc(C(=N)N)cn1 [compound 120]
≥ 75%: all assays above

N=C(N)NCCCCCCCCNC(=N)NCCCCCOc1ccc(C(=N)N)cc1 [compound 171]
≥ 75%: all assays above

N=C(N)c1ccc(OCCCn2ccn(CCCSc3ccc(C(=N)N)cc3)c2=N)cc1 [compound 173]
≥ 75%: all assays above

CNC(=N)c1ccc(OCCCCn2ccn(CCCOc3ccc(C(=N)N)cc3)c2=N)cc1 [compound 124]
≥ 75%: all assays above

N=C(NCCCOCc1ccc(C(=N)N)cc1)NCCCOc1ccc(C(=N)N)cc1 [compound 142]
≥ 75%: all assays above

Cc1c(C)n(CCCOc2ccc(C(=N)N)cc2)c(=N)n1CCCOc1ccc(C(=N)N)cc1 [compound 109]
≥ 75%: all assays above

N=C(N)NCCCCCCNC(=N)NCCCCOc1ccc(C(=N)N)cc1 [compound 136]
≥ 75%: all assays above

N=C(N)NCCCCCCCNC(=N)NCCCc1cc2cc(C(=N)N)ccc2o1 [compound 34, 2-(3-(3-(7-guanidinoheptyl)guanidino)propyl)benzofuran-5-carboximidamide]
≥ 75%: all assays above

N=C(N)NCCCCCCCCNC(=N)NCCC=Cc1ccc(C(=N)N)cc1 [compound 157]
≥ 75%: all assays above

N=C(N)NCCCCCCCCCNC(=N)NCCOc1ccc(C2=NCCCN2)cc1 [compound 242]
≥ 75%: all assays above

N=C(N)NCCCCCCCCNC(=N)NCCCOc1ccc(C(=N)N)cc1Cl [compound 112]
≥ 75%: all assays above

N=C(NCCCCOc1ccc(C(=N)N)cc1)NCCCCOc1ccc(C(=N)N)cc1 [compound 10, 4-[4-[[N-[4-(4-carbamimidoylphenoxy)butyl]carbamimidoyl]amino]butoxy]benzamidine]
≥ 75%: all assays above

N=C(N)c1ccc(OCCCn2ccn(CCCOc3ccc(C(=N)N)c(F)c3)c2=N)cc1F [compound 103]
≥ 75%: all assays above

N=C(N)NCCCCCCCCNC(=N)NCCOCc1ccc(C(=N)N)cc1 [compound 200]
≥ 75%: all assays above

N=C(N)NCCCCCCCCNC(=N)NCCCOc1ccc(C2=NCCCN2)cc1 [compound 192]
≥ 75%: all assays above

N=C(N)NCCCCCCCCn1ccn(CCCOc2ccc(C3=NCCCN3)cc2)c1=N [compound 184]
≥ 75%: all assays above

CN(CCCCCCCCNC(=N)N)C(=N)NCCCOc1ccc(C(=N)N)cc1 [compound 140]
≥ 75%: all assays above

Cc1cn(CCCOc2ccc(C(=N)N)cc2)c(=N)n1CCCOc1ccc(C(=N)N)cc1 [compound 114]
≥ 75%: all assays above

N=C(NCCCCCCCCNC1=NCCN1)NCCCOc1ccc(C(=N)N)cc1 [compound 298]
≥ 75%: all assays above

N=C(N)NCCCCCCCCNC(=N)NCCOc1ccc(C2=NCCCN2)cc1 [compound 240]
≥ 75%: all assays above

N=C(N)NCCCCCCCCNC(=N)NCCCCOc1ccc(C(=N)N)cc1 [compound 188]
≥ 75%: all assays above

N=C(N)NCCCCCCCn1ccn(CCCCOc2ccc(C(=N)N)cc2)c1=N [compound 52, 4-[4-[3-(7-guanidinoheptyl)-2-imino-imidazol-1-yl]butoxy]benzamidine]
≥ 75%: all assays above

N=C(N)NCCCCCCCCNC(=N)NCC#Cc1ccc(C(=N)N)cc1 [compound 165]
≥ 75%: all assays above

N=C(N)NCCCCCCCNC(=N)NCCCCOc1ccc(C2=NCC(N)CN2)cc1 (centres unmarked) [compound 277]
≥ 75%: all assays above

N=C(N)NCCCCCCCCNC(=N)NCCCOCc1ccc(C2=NCCCN2)cc1 [compound 222]
≥ 75%: all assays above

N=C(N)NCCCCCCCCNC(=N)NCCC#Cc1ccc(C(=N)N)cc1 [compound 153]
≥ 75%: all assays above
